Reference: patent US20260070945A1, “MACROCYCLIC IMMUNOMODULATORS” (Bristol-Myers Squibb Company, priority 2022, published 2026)
*1 amine or outer side, *2 acyl side, *3 side chain or, on linkers, in order; H or OH if unused. Where a SMILES comes first, the peptide text is derived from it. Bridges are numbered along the chain shown (N, C = ends). [ ]: non-standard residue; d: D form. The star is where a group is joined. ξ: configuration not given here. Phe(4-COOH) = N[C@@H](Cc1ccc(C(=O)O)cc1)C(=O)O; Bip = N[C@@H](Cc1ccc(-c2ccccc2)cc1)C(=O)O; γGlu = O=C(O)[C@H](CCC(=O)[*:2])N[*:1]; βAsp = O=C(O)[C@H](CC(=O)[*:2])N[*:1]; aIle = CC[C@@H](C)[C@H](N)C(=O)O; 4Pal = N[C@@H](Cc1ccncc1)C(=O)O; Cha = N[C@@H](CC1CCCCC1)C(=O)O; Cit = NC(=O)NCCC[C@H](N)C(=O)O; Ile(3ξ) = CCC(C)[C@H](N)C(=O)O; Thr(3ξ) = CC(O)[C@H](N)C(=O)O; Carboxymethyl = O=C(O)C*; NMeA = CN[C@@H](C)C(=O)O; Orn = NCCC[C@H](N)C(=O)O; Aun = NCCCCCCCCCCC(=O)O; Dab = NCC[C@H](N)C(=O)O; AEEA = NCCOCCOCC(=O)O

Molecular target: T1, PD-1/PD-L1 interaction (PE-labeled human PD-L1-Ig binding to Jurkat cell line over-expressing human PD-1) (Homo sapiens, UniProt Q15116)
T1 construct: expressed in transfected cells; host or cells: Jurkat
T1 sequence (Q15116 25-288): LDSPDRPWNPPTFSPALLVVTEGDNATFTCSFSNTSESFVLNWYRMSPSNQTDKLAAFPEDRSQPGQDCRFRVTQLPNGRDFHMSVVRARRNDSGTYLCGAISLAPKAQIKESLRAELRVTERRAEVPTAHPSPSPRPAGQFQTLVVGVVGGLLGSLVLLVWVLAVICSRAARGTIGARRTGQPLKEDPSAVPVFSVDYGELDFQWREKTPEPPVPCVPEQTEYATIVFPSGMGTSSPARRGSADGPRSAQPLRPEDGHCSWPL
Assay: Jurkat-PD-1 Cell Binding High-Content Screening Assay (CBA)
Conditions: Jurkat-hPD-1 cells, PE-labeled PD-L1-Ig 20 nM final; read-out: Jurkat HPD1 PDL1 IC50
How it was run: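 Jurkat cells overexpressing human PD-1 (8×10^3/well, DMEM + 10% FCS) preincubated with compound 2 h at 37 °C, then PE-labelled human PD-L1-Ig (20 nM final) for 1 h. Cells fixed in paraformaldehyde with Hoechst 33342; bound PD-L1 quantified by high-content imaging.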

Row | SMILES | IC50 [nM]
1 | CC[C@@H](C)[C@@H]1NC(=O)[C@H](Cc2ccc(-c3ccccc3)cc2)NC(=O)[C@H](C(C)C)NC(=O)[C@H](Cc2c[nH]c3ccccc23)NC(=O)[C@H](CC(=O)O)NC(=O)[C@H](Cc2ccc(OCC(=O)O)cc2)NC(=O)[C@H](Cc2ccncc2)NC(=O)CSC[C@@H](C(=O)NCCOCCOCC(=O)N[C@@H](CCC(=O)NCCOCCOCC(=O)N[C@@H](CCC(=O)NCCOCCOCC(=O)N[C@@H](CCCN)C(=O)NCCCCCCCCCCC(=O)O)C(=O)O)C(=O)O)NC(=O)[C@H](CO)NC(=O)[C@H](C(C)C)NC(=O)[C@H](CC2CCCCC2)NC(=O)[C@H](CC(N)=O)NC(=O)[C@@H](CC(C)C)NC(=O)[C@H](C)N(C)C1=O [Example 2019] ({CH2CO}-[4Pal]Y(Carboxymethyl)DWV[Bip][aIle][NMeA][dL]N[Cha]VSC[AEEA][γGlu][AEEA][γGlu][AEEA][Orn][Aun]-OH; thioether N-14) | 24.9
2 | CC[C@@H](C)[C@@H]1NC(=O)[C@H](Cc2ccc(-c3ccccc3)cc2)NC(=O)[C@H](C(C)C)NC(=O)[C@H](Cc2c[nH]c3ccccc23)NC(=O)[C@H](CC(=O)O)NC(=O)[C@H](Cc2ccc(O)cc2)NC(=O)[C@H](Cc2ccncc2)NC(=O)CSC[C@@H](C(=O)N[C@H](CC(N)=O)C(=O)NCCOCCOCC(=O)N[C@@H](CCC(=O)NCCOCCOCC(=O)N[C@@H](CCC(=O)NCCOCCOCC(=O)N[C@@H](CCCN)C(=O)NCCCCCCCCCCC(=O)O)C(=O)O)C(=O)O)NC(=O)[C@H](CO)NC(=O)[C@H](C(C)C)NC(=O)[C@H](CC2CCCCC2)NC(=O)[C@H](CC(N)=O)NC(=O)[C@@H](CC(C)C)NC(=O)[C@H](C)N(C)C1=O [Example 2020] ({CH2CO}-[4Pal]YDWV[Bip][aIle][NMeA][dL]N[Cha]VSC[dN][AEEA][γGlu][AEEA][γGlu][AEEA][Orn][Aun]-OH; thioether N-14) | 30.5
3 | CC[C@@H](C)[C@@H]1NC(=O)[C@H](Cc2ccc(-c3ccccc3)cc2)NC(=O)[C@H](C(C)C)NC(=O)[C@H](Cc2c[nH]c3ccccc23)NC(=O)[C@H](CC(=O)O)NC(=O)[C@H](Cc2ccc(C(=O)O)cc2)NC(=O)[C@H](Cc2ccc(OCC(=O)O)cc2)NC(=O)CSC[C@@H](C(=O)N[C@@H](CC(N)=O)C(=O)NCCOCCOCC(=O)N[C@@H](CCC(=O)NCCOCCOCC(=O)N[C@@H](CCC(=O)NCCOCCOCC(=O)N[C@@H](CCCN)C(=O)NCCCCCCCCCCC(=O)O)C(=O)O)C(=O)O)NC(=O)[C@H](CO)NC(=O)[C@H](C(C)C)NC(=O)[C@H](CC2CCCCC2)NC(=O)[C@H](CC(N)=O)NC(=O)[C@@H](CC(C)C)NC(=O)[C@H](C)N(C)C1=O [Example 2021] ({CH2CO}-Y(Carboxymethyl)[Phe(4-COOH)]DWV[Bip][aIle][NMeA][dL]N[Cha]VSCN[AEEA][γGlu][AEEA][γGlu][AEEA][Orn][Aun]-OH; thioether N-14) | 48.9
4 | CC[C@@H](C)[C@@H]1NC(=O)[C@H](Cc2ccc(-c3ccccc3)cc2)NC(=O)[C@H](C(C)C)NC(=O)[C@H](Cc2c[nH]c3ccccc23)NC(=O)[C@H](CC(=O)O)NC(=O)[C@H](Cc2ccc(O)cc2)NC(=O)[C@H](Cc2ccncc2)NC(=O)CSC[C@@H](C(=O)N[C@H](CCCCN)C(=O)NCCOCCOCC(=O)NCCCCCCCCCCC(=O)O)NC(=O)[C@H](CO)NC(=O)[C@H](C(C)C)NC(=O)[C@H](CC2CCCCC2)NC(=O)[C@H](CCN)NC(=O)[C@@H](CC(C)C)NC(=O)[C@H](C)N(C)C1=O [Example 2023] ({CH2CO}-[4Pal]YDWV[Bip][aIle][NMeA][dL][Dab][Cha]VSC[dK][AEEA][Aun]-OH; thioether N-14) | 47.4
5 | CC[C@@H](C)[C@@H]1NC(=O)[C@H](Cc2ccc(-c3ccccc3)cc2)NC(=O)[C@H](C(C)C)NC(=O)[C@H](Cc2c[nH]c3ccccc23)NC(=O)[C@H](CC(=O)O)NC(=O)[C@H](Cc2ccc(OCC(=O)O)cc2)NC(=O)[C@H](CCCNC(N)=O)NC(=O)CSC[C@@H](C(=O)N[C@H](CC(N)=O)C(=O)NCCOCCOCC(=O)N[C@@H](CCC(=O)NCCOCCOCC(=O)N[C@@H](CCC(=O)NCCOCCOCC(=O)N[C@@H](CCCN)C(=O)NCCCCCCCCCCC(=O)O)C(=O)O)C(=O)O)NC(=O)[C@H](CO)NC(=O)[C@H](C(C)C)NC(=O)[C@H](CC2CCCCC2)NC(=O)[C@H](CC(N)=O)NC(=O)[C@@H](CC(C)C)NC(=O)[C@H](C)N(C)C1=O [Example 2024] ({CH2CO}-[Cit]Y(Carboxymethyl)DWV[Bip][aIle][NMeA][dL]N[Cha]VSC[dN][AEEA][γGlu][AEEA][γGlu][AEEA][Orn][Aun]-OH; thioether N-14) | 38.3
6 | CC[C@@H](C)[C@@H]1NC(=O)[C@H](Cc2ccc(-c3ccccc3)cc2)NC(=O)[C@H](C(C)C)NC(=O)[C@H](Cc2c[nH]c3ccccc23)NC(=O)[C@H](CC(=O)O)NC(=O)[C@H](Cc2ccc(O)cc2)NC(=O)[C@H](CCCNC(N)=O)NC(=O)CSC[C@@H](C(=O)N[C@H](CC(N)=O)C(=O)NCCOCCOCC(=O)N[C@@H](CCC(=O)NCCOCCOCC(=O)N[C@@H](CCC(=O)NCCOCCOCC(=O)N[C@@H](CCCN)C(=O)NCCCCCCCCCCC(=O)O)C(=O)O)C(=O)O)NC(=O)[C@H](CO)NC(=O)[C@H](C(C)C)NC(=O)[C@H](CC2CCCCC2)NC(=O)[C@H](CC(N)=O)NC(=O)[C@@H](CC(C)C)NC(=O)[C@H](C)N(C)C1=O [Example 2025] ({CH2CO}-[Cit]YDWV[Bip][aIle][NMeA][dL]N[Cha]VSC[dN][AEEA][γGlu][AEEA][γGlu][AEEA][Orn][Aun]-OH; thioether N-14) | 49.8
7 | CCC(C)[C@@H]1NC(=O)[C@H](Cc2ccc(-c3ccccc3)cc2)NC(=O)[C@H](C(C)C)NC(=O)[C@H](Cc2c[nH]c3ccccc23)NC(=O)[C@H](CC(=O)O)NC(=O)[C@H](Cc2ccc(OCC(=O)O)cc2)NC(=O)[C@H](C(C)O)NC(=O)CSC[C@@H](C(=O)NCCOCCOCC(=O)N[C@@H](CCCCN)C(=O)NCCCCCCCCCCC(=O)O)NC(=O)[C@H](CO)NC(=O)[C@H](C(C)C)NC(=O)[C@H](CC2CCCCC2)NC(=O)[C@H](CCN)NC(=O)[C@@H](CC(C)C)NC(=O)[C@H](C)N(C)C1=O (stereo partly drawn) [Example 2030] ({CH2CO}-[Thr(3ξ)]Y(Carboxymethyl)DWV[Bip][Ile(3ξ)][NMeA][dL][Dab][Cha]VSC[AEEA]K[Aun]-OH; thioether N-14) | 13.2

The remaining lines, values ahead:

Row | IC50 [nM] | SMILES
8 | 129 | CC(C)C[C@@H]1NC(=O)[C@H](Cc2c[nH]c3ccccc23)NC(=O)[C@H](CC(=O)O)NC(=O)[C@H](Cc2ccc(OCC(=O)O)cc2)NC(=O)[C@H](Cc2ccncc2)NC(=O)CSC[C@@H](C(=O)N[C@@H](CC(N)=O)C(=O)N[C@@H](CC(=O)NCCOCCOCC(=O)NCCCCCCCCCCC(=O)O)C(=O)O)NC(=O)[C@H](CO)NC(=O)[C@H](C(C)C)NC(=O)[C@H](CC2CCCCC2)NC(=O)[C@H](CC(N)=O)NC(=O)[C@@H](CC(C)C)NC(=O)[C@H](C)N(C)C(=O)[C@H](C(C)C)NC(=O)[C@H](Cc2ccc(-c3ccccc3)cc2)NC1=O [Example 2022] ({CH2CO}-[4Pal]Y(Carboxymethyl)DWL[Bip]V[NMeA][dL]N[Cha]VSCN[βAsp][AEEA][Aun]-OH; thioether N-14)
9 | 237 | CC(C)C[C@@H]1NC(=O)[C@H](Cc2c[nH]c3ccccc23)NC(=O)[C@H](CC(=O)O)NC(=O)[C@H](Cc2ccc(OCC(=O)O)cc2)NC(=O)[C@H](CCCNC(N)=O)NC(=O)CSC[C@@H](C(=O)N[C@@H](CC(N)=O)C(=O)N[C@@H](CC(=O)NCCOCCOCC(=O)NCCCCCCCCCCC(=O)O)C(=O)O)NC(=O)[C@H](CO)NC(=O)[C@H](C(C)C)NC(=O)[C@H](CC2CCCCC2)NC(=O)[C@H](CC(N)=O)NC(=O)[C@@H](CC(C)C)NC(=O)[C@H](C)N(C)C(=O)[C@H](C(C)C)NC(=O)[C@H](Cc2ccc(-c3ccccc3)cc2)NC1=O [Example 2026] ({CH2CO}-[Cit]Y(Carboxymethyl)DWL[Bip]V[NMeA][dL]N[Cha]VSCN[βAsp][AEEA][Aun]-OH; thioether N-14)
10 | 38.6 | CC[C@@H](C)[C@@H]1NC(=O)[C@H](Cc2ccc(-c3ccccc3)cc2)NC(=O)[C@H](C(C)C)NC(=O)[C@H](Cc2c[nH]c3ccccc23)NC(=O)[C@H](CC(=O)O)NC(=O)[C@H](Cc2ccc(O)cc2)NC(=O)[C@H](CCCNC(N)=O)NC(=O)CSC[C@@H](C(=O)N[C@H](CCCCN)C(=O)NCCOCCOCC(=O)NCCCCCCCCCCC(=O)O)NC(=O)[C@H](CO)NC(=O)[C@H](C(C)C)NC(=O)[C@H](CC2CCCCC2)NC(=O)[C@H](CCN)NC(=O)[C@@H](CC(C)C)NC(=O)[C@H](C)N(C)C1=O [Example 2027] ({CH2CO}-[Cit]YDWV[Bip][aIle][NMeA][dL][Dab][Cha]VSC[dK][AEEA][Aun]-OH; thioether N-14)
11 | 9.9 | CCC(C)[C@@H]1NC(=O)[C@H](Cc2ccc(-c3ccccc3)cc2)NC(=O)[C@H](C(C)C)NC(=O)[C@H](Cc2c[nH]c3ccccc23)NC(=O)[C@H](CC(=O)O)NC(=O)[C@H](Cc2ccc(OCC(=O)O)cc2)NC(=O)[C@H](Cc2ccncc2)NC(=O)CSC[C@@H](C(=O)N[C@H](CC(N)=O)C(=O)NCCOCCOCC(=O)NCCCCCCCCCCC(=O)O)NC(=O)[C@H](CO)NC(=O)[C@H](C(C)C)NC(=O)[C@H](CC2CCCCC2)NC(=O)[C@H](CCN)NC(=O)[C@@H](CC(C)C)NC(=O)[C@H](C)N(C)C1=O (stereo partly drawn) [Example 2028] ({CH2CO}-[4Pal]Y(Carboxymethyl)DWV[Bip][Ile(3ξ)][NMeA][dL][Dab][Cha]VSC[dN][AEEA][Aun]-OH; thioether N-14)
12 | 9.4 | CCC(C)[C@@H]1NC(=O)[C@H](Cc2ccc(-c3ccccc3)cc2)NC(=O)[C@H](C(C)C)NC(=O)[C@H](Cc2c[nH]c3ccccc23)NC(=O)[C@H](CC(=O)O)NC(=O)[C@H](Cc2ccc(OCC(=O)O)cc2)NC(=O)[C@H](C(C)O)NC(=O)CSC[C@@H](C(=O)N[C@H](CC(N)=O)C(=O)NCCOCCOCC(=O)NCCCCCCCCCCC(=O)O)NC(=O)[C@H](CO)NC(=O)[C@H](C(C)C)NC(=O)[C@H](CC2CCCCC2)NC(=O)[C@H](CCN)NC(=O)[C@@H](CC(C)C)NC(=O)[C@H](C)N(C)C1=O (stereo partly drawn) [Example 2031] ({CH2CO}-[Thr(3ξ)]Y(Carboxymethyl)DWV[Bip][Ile(3ξ)][NMeA][dL][Dab][Cha]VSC[dN][AEEA][Aun]-OH; thioether N-14)
